Experimental data: patent US20260103465A1, “GLYCOGEN SYNTHASE KINASE 3 INHIBITORS AND USES THEREOF” (The Broad Institute, Inc., priority 2023, published 2026)
Like-named read-outs stand apart in the source and are kept apart here.

Key:
[1] = biological target: T1, GSK3a (GST-full length GSK3a) (Homo sapiens, UniProt P49840); assay: GSK3a TR-FRET kinase inhibition assay; type: biochemical
T1 construct: GST-full length GSK3a [SignalChem G08-10G]; purchased SignalChem G08-10G
Experimental: (§1) TR-FRET assay was performed in a white, 384 well, low volume, flat bottom plate (Grenier). After a 30 minute preincubation in assay buffer with the indicated concentration of compound, the kinase activity was initiated by the addition of the substrates. 1 nM GSK3a (GST-full length GSK3a [SignalChem G08-10G]) or 1 nM GSK3b (GST-full length GSK3b: [SignalChem G08-9G]) were then incubated at ambient temperature for 100 minutes in 10 μl of 50 mM Tris, pH 7.5, 20 mM MgCl2, 0.05 mM DTT, 100 μg/ml BSA and 1% DMSO, with 200 nM biotinylated peptide substrate (biotinylated and S645 phosphorylated glycogen synthase 631-650) and ATP (e.g., at 2 μM, 4 μM, 10 μM, 100 μM, or 1 mM). The kinase activity was quenched with 2 μl of 250 mM EDTA. A 10 μl volume of 40 nM Strepavidin-d2, 2 nM […] antibody in TR-FRET Detection Buffer (Invitrogen) was then added. After 60 min at room temperature the plate was read on Envision plate reader using Ex: 340 nm, Em: 615 nm and […]. The normalized 665/615 Signal ratio versus log compound concentration was analyzed by XLFIT to yield IC50 values.

[2] = biological target: T2, GSK3b (GST-full length GSK3b) (Homo sapiens, UniProt P49841); assay: GSK3b TR-FRET kinase inhibition assay; type: biochemical
T2 construct: GST-full length GSK3b: [SignalChem G08-9G]; purchased SignalChem G08-9G
T2 sequence (P49841 whole entry): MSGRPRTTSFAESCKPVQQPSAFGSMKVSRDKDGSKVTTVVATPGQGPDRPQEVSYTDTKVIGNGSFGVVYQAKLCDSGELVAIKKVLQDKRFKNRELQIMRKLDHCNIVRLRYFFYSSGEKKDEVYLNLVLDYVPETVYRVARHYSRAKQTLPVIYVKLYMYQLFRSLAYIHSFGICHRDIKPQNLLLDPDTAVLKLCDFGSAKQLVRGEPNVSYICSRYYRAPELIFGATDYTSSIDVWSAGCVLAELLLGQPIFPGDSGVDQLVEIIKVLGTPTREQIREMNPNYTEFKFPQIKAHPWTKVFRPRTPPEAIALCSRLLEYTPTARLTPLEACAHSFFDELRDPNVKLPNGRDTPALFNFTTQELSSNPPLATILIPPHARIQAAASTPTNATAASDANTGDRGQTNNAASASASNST
Experimental: as §1

[3] = 4 μM ATP, read-out: GSK3α TR-FRET 4 μM ATP GMean IC50
[4] = 2 μM ATP, read-out: GSK3β TR-FRET 2 μM ATP GMean IC50
[5] = 1 mM ATP, Table 5, read-out: GSK3α TR-FRET 1 mM ATP Average IC50
[6] = 1 mM ATP, Table 5, read-out: GSK3β TR-FRET 1 mM ATP Average IC50
[7] = 1 mM ATP, Table 3, read-out: GSK3b TR-FRET 1 mM ATP Average IC50
[8] = 1 mM ATP, Table 3, read-out: GSK3a TR-FRET 1 mM ATP Average IC50

T1 sequence (P49840 whole entry): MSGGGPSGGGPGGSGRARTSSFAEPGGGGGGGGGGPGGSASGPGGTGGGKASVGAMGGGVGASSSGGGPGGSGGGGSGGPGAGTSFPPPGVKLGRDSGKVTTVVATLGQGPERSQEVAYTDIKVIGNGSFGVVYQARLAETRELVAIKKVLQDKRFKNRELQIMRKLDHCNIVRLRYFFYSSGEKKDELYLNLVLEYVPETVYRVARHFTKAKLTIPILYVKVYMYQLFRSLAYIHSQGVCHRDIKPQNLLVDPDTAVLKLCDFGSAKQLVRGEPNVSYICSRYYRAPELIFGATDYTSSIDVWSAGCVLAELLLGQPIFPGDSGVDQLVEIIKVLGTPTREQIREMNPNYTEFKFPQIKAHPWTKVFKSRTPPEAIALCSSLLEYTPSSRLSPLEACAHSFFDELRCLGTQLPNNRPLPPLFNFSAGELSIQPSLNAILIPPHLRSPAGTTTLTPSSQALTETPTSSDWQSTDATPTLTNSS

Row | Compound | IC50 [1, 5] [µM] | IC50 [2, 6] [µM] | other results
1 | CCC1(c2ccccc2)C2=C(CC(C)(C)CC2=O)Nc2ncccc21 (racemic) [Compound 102] |  |  | IC50 [1, 3]: 0.1 to 1 µM; IC50 [2, 4]: 0.1 to 1 µM
2 | CCC1(c2ccccc2)C2=C(CC(C)(C)CC2=O)Nc2ncc(F)cc21 (racemic) [Compound 114] |  |  | IC50 [1, 3]: ≤ 0.1 µM; IC50 [2, 4]: ≤ 0.1 µM
3 | CCC1(c2cccc(C3CCC3)c2)C2=C(CC(C)(C)CC2=O)Nc2ncccc21 (racemic) [Compound 1012] |  |  | IC50 [1, 3]: ≤ 0.1 µM; IC50 [2, 4]: ≤ 0.1 µM
4 | CCC1(c2ccccc2)C2=C(CC3(CCC3)CC2=O)Nc2ncccc21 (single isomer, unassigned) [110 A] |  |  | IC50 [1, 3]: ≤ 0.1 µM; IC50 [2, 4]: ≤ 0.1 µM
5 | CCC1(c2ccccc2)C2=C(CC3(CCC3)CC2=O)Nc2ncccc21 (single isomer, unassigned) [110 B] |  |  | IC50 [1, 3]: > 5 µM; IC50 [2, 4]: > 5 µM
6 | CCC1(c2ccccc2)C2=C(CC(C)(C)CC2=O)Nc2ncc(F)cc21 (single isomer, unassigned) [114 A] |  |  | IC50 [1, 3]: ≤ 0.1 µM; IC50 ([1]; 1 mM ATP, Table 4, read-out: GSK3α TR-FRET 1 mM ATP GMean IC50): 0.1 to 1 µM; IC50 [2, 4]: ≤ 0.1 µM; IC50 ([2]; 1 mM ATP, Table 4, read-out: GSK3β TR-FRET 1 mM ATP GMean IC50): 1 to 5 µM
7 | CCC1(c2ccccc2)C2=C(CC(C)(C)CC2=O)Nc2ncc(F)cc21 (single isomer, unassigned) [114 B] |  |  | IC50 [1, 3]: 0.1 to 1 µM; IC50 [2, 4]: 1 to 5 µM
8 | CCC1(c2ccccc2)C2=C(CC(C)(C)CC2=O)Nc2ncc(C(F)(F)F)cc21 (single isomer, unassigned) [133 A] |  |  | IC50 [1, 3]: > 5 µM; IC50 [2, 4]: > 5 µM
9 | CCC1(c2ccccc2)C2=C(CC(C)(C)CC2=O)Nc2ncc(C(F)(F)F)cc21 (single isomer, unassigned) [133 B] |  |  | IC50 [1, 3]: ≤ 0.1 µM; IC50 [2, 4]: ≤ 0.1 µM
10 | CCC1(c2cccc(-c3ccnc(C)c3C)c2)C2=C(CC(C)(C)CC2=O)Nc2ncccc21 (single isomer, unassigned) [147 A] |  |  | IC50 [1, 3]: 1 to 5 µM; IC50 [2, 4]: > 5 µM
11 | Cc1cnc2c(c1C#N)C(C)(c1ccccc1)C1=C(CC(C)(C)CC1=O)N2 (single isomer, unassigned) [603A] | 5 to 20 | 5 to 20 | 
12 | Cc1cnc2c(c1C#N)C(C)(c1ccccc1)C1=C(CC(C)(C)CC1=O)N2 (single isomer, unassigned) [603B] | 0.1 to 1 | 0.1 to 1 | 
13 | CC1(C)CC2=C(C(=O)N1)C(C)(c1ccccc1)c1c(ncc(F)c1C#N)N2 (single isomer, unassigned) [604A] | 1 to 5 | 1 to 5 | 
14 | CC1(C)CC2=C(C(=O)N1)C(C)(c1ccccc1)c1c(ncc(F)c1C#N)N2 (single isomer, unassigned) [604B] | ≤ 0.1 | ≤ 0.1 | 
15 | CC1(C)CC(=O)C2=C(C1)Nc1ncc(C#N)c(C#N)c1C2(C)c1ccccc1 (single isomer, unassigned) [605A] | 0.1 to 1 | 0.1 to 1 | 
16 | CC1(C)CC(=O)C2=C(C1)Nc1ncc(C#N)c(C#N)c1C2(C)c1ccccc1 (single isomer, unassigned) [605B] | 5 to 20 | 5 to 20 | 
17 | CC1(C)CC(=O)C2=C(C1)Nc1ncc3ccccc3c1C2(C)c1ccccc1 (single isomer, unassigned) [606A] | 5 to 20 | 5 to 20 | 
18 | CC1(C)CC(=O)C2=C(C1)Nc1ncc3ccccc3c1C2(C)c1ccccc1 (single isomer, unassigned) [606B] | 1 to 5 | 1 to 5 | 
19 | C=Cc1cnc2c(c1C#N)C(C)(c1ccccc1)C1=C(CC(C)(C)CC1=O)N2 (single isomer, unassigned) [607A] | 1 to 5 | 1 to 5 | 

Row | Compound | IC50 [1, 5] [µM] | IC50 [2, 6] [µM] | other results
20 | C=Cc1cnc2c(c1C#N)C(C)(c1ccccc1)C1=C(CC(C)(C)CC1=O)N2 (single isomer, unassigned) [607B] | 5 to 20 | 5 to 20 | 
21 | CCc1cnc2c(c1C#N)C(C)(c1ccccc1)C1=C(CC(C)(C)CC1=O)N2 (single isomer, unassigned) [608A] | 1 to 5 | 1 to 5 | 
22 | Cn1ncc2c3c(ncc21)NC1=C(C(=O)CC(C)(C)C1)C3(C)c1ccccc1 (single isomer, unassigned) [609A] | 5 to 20 | 5 to 20 | 
23 | Cn1ncc2c3c(ncc21)NC1=C(C(=O)CC(C)(C)C1)C3(C)c1ccccc1 (single isomer, unassigned) [609B] | 5 to 20 | 1 to 5 | 
24 | CNc1cnc2c(c1C#N)C(C)(c1ccccc1)C1=C(CC(C)(C)CC1=O)N2 (single isomer, unassigned) [610B] | 5 to 20 | 5 to 20 | 
25 | COc1cnc2c(c1C#N)C(C)(c1ccccc1)C1=C(CC(C)(C)CC1=O)N2 (single isomer, unassigned) [612A] |  | 5 to 20 | 
26 | COc1cnc2c(c1C#N)C(C)(c1ccccc1)C1=C(CC(C)(C)CC1=O)N2 (single isomer, unassigned) [612B] | 5 to 20 | 5 to 20 | 
27 | CC(=O)c1cnc2c(c1C#N)C(C)(c1ccccc1)C1=C(CC(C)(C)CC1=O)N2 (single isomer, unassigned) [621B] |  | 5 to 20 | 
28 | CC(C)c1cnc2c(c1C#N)C(C)(c1ccccc1)C1=C(CC(C)(C)CC1=O)N2 (single isomer, unassigned) [622A] |  | 5 to 20 | 
29 | CC1(C)CC2=C(C(=O)N1)C(C)(c1ccccc1)c1cc(C(F)(F)F)cnc1N2 (single isomer, unassigned) [625B] | 5 to 20 |  | 
30 | CC1(C)CC2=C(C(=O)N1)C(C)(c1cccc(S(C)(=O)=O)c1)c1cccnc1N2 (single isomer, unassigned) [630B] | 5 to 20 |  | 
31 | C=Cc1cnc2c(c1Br)C(C)(c1ccccc1)C1=C(CC(C)(C)CC1=O)N2 (single isomer, unassigned) [640A] |  | 5 to 20 | 
32 | Cc1c(C2(C)C3=C(CC(C)(C)CC3=O)Nc3ncc(F)cc32)cccc1S(C)(=O)=O (single isomer, unassigned) [643B] | 5 to 20 |  | 
33 | CC1(C)CC(=O)C2=C(C1)Nc1nccc(F)c1C2(C)c1ccccc1 (single isomer, unassigned) [Compound 105A] |  |  | IC50 [2, 7]: 5 to 20 µM
34 | CC1(C)CC(=O)C2=C(C1)Nc1ncc(F)cc1C2(C)c1ccccc1 (single isomer, unassigned) [Compound 107A] |  |  | IC50 [2, 7]: 5 to 20 µM
35 | CC1(C)CC(=O)C2=C(C1)Nc1nccc(C#N)c1C2(C)c1ccccc1 (single isomer, unassigned) [Compound 108B] |  |  | IC50 [1, 8]: 5 to 20 µM
36 | CC1(C)CC(=O)C2=C(C1)Nc1ncc(F)c(F)c1C2(C)c1ccccc1 (single isomer, unassigned) [Compound 116A] |  |  | IC50 [1, 8]: 5 to 20 µM
37 | CC1(C)CC(=O)C2=C(C1)Nc1ncc3c(c1C2(C)c1ccccc1)CCC3 (single isomer, unassigned) [Compound 118A] |  |  | IC50 [2, 7]: 5 to 20 µM

The next lines start with results.

Row | IC50 [1, 5] [µM] | IC50 [2, 6] [µM] | Compound | other results
38 | 1 to 5 | 1 to 5 | Cc1cnc2c(c1C)C(C)(c1ccccc1)C1=C(CC(C)(C)CC1=O)N2 (single isomer, unassigned) [601A] | 
39 | 5 to 20 | 5 to 20 | Cc1cnc2c(c1C)C(C)(c1ccccc1)C1=C(CC(C)(C)CC1=O)N2 (single isomer, unassigned) [601B] | 
40 |  | 5 to 20 | COc1cnc2c(c1)C(C)(c1ccccc1)C1=C(CC(C)(C)CC1=O)N2 (single isomer, unassigned) [602B] | 
41 | 5 to 20 | 5 to 20 | CCc1cnc2c(c1C#N)C(C)(c1ccccc1)C1=C(CC(C)(C)CC1=O)N2 (single isomer, unassigned) [608B] | 
42 | 5 to 20 |  | CC1(C)CC(=O)C2=C(C1)Nc1ncc(F)cc1C2(C)c1cccc(C(F)F)c1 (single isomer, unassigned) [623A] | 
43 |  | 5 to 20 | CC(C)Oc1cccc(C2(C)C3=C(CC(C)(C)CC3=O)Nc3ncc(F)cc32)c1 (single isomer, unassigned) [629A] | 
